Literature values, collected in article PMC4315033, “The regulation of muscle mass by endogenous glucocorticoids” (Frontiers in Physiology, 2015).

Tests used:
[1] = test system: mineralocorticoid receptor; set-up: method as in Chapman et al., 2013; conditions: ref Chapman et al., 2013
[2] = test system: GR
[3] = test system: cultured myotubes; set-up: method as in Biedasek et al., 2011; conditions: ref Biedasek et al., 2011
[4] = test system: cultured myotubes; set-up: method as in Lokireddy et al., 2012; conditions: ref Lokireddy et al., 2012
[5] = test system: TRAF6; set-up: method as in Sun et al., 2014; conditions: pharmacologic doses; ref Sun et al., 2014
[6] = test system: muscle atrophy; set-up: method as in Hu et al., 2009; conditions: ref Hu et al., 2009
[7] = test system: GR^dim mice; set-up: method as in Reichardt et al., 1998; Tuckermann et al., 1999; conditions: ref Reichardt et al., 1998, Tuckermann et al., 1999
[8] = test system: miR27a and b; set-up: method as in Allen and Loh, 2011; conditions: ref Allen and Loh, 2011
[9] = test system: muscle wasting; set-up: method as in Song et al., 2005; conditions: angiotensin II infused at concentrations mimicking endogenous production in CKD, co-administration; ref Song et al., 2005
[10] = test system: muscle explants; set-up: method as in Tiao et al., 1996; conditions: juvenile rats, explants harvested 16 h after CLP; ref Tiao et al., 1996
[11] = test system: other steroid receptors
[12] = test system: MAFbx and MuRF1; set-up: method as in Frost et al., 2007; conditions: adult rats, ref Frost et al., 2007
[13] = test system: muscle protein breakdown; set-up: method as in Zamir et al., 1992; conditions: ref Zamir et al., 1992
[14] = test system: MAFbx, MuRF1, and Foxo1; set-up: method as in Braun et al., 2011; conditions: inflammatory cytokines delivered directly into the brain; ref Braun et al., 2011

**Q.** With C[C@]12CCC(=O)C=C1CC[C@@H]1[C@@H]2[C@@H](O)C[C@@]2(C)[C@H]1CC[C@]2(O)C(=O)CO [Cortisol] as the compound, how does the “affinity for mineralocorticoid receptor relative to GR” value [1] read?
**A.** Its value is “higher affinity”.

**Q.** Which “binding to the GR” value [2] does the source give for C[C@]12CCC(=O)C=C1CC[C@@H]1[C@@H]2C(=O)C[C@@]2(C)[C@H]1CC[C@]2(O)C(=O)CO [cortisone] here?
**A.** The value was “does not bind”.

**Q.** And the “proteolysis and atrophy in cultured myotubes” value [3]?
**A.** Its value is “capable of inducing”.

**Q.** For C[C@@H]1C[C@H]2[C@@H]3CCC4=CC(=O)C=C[C@]4(C)[C@@]3(F)[C@@H](O)C[C@]2(C)[C@@]1(O)C(=O)CO [dexamethasone], which Mul1 expression [4] is on record?
**A.** The Mul1 expression was “induces”.

**Q.** What about the mitophagy [4] of the same compound?
**A.** Its mitophagy is “induces”.

**Q.** And the TRAF6 expression [5]?
**A.** The TRAF6 expression was “increase”.

**Q.** What about the “muscle atrophy, given in isolation” value ([6]; dose estimated to mimic endogenous concentrations in diabetic animals) of the same compound?
**A.** The value was “insufficient to evoke substantial atrophy”.

**Q.** And the “muscle atrophy in diabetic adrenalectomized mice” value ([6]; same dose, streptozotocin-induced diabetes)?
**A.** The value was “restores normal muscle atrophy”.

**Q.** And the PMA-induced skin inflammation [7]?
**A.** Its PMA-induced skin inflammation is “continued to suppress”.

**Q.** What about the “expression of genes regulating carbohydrate balance” value [7] of the same compound?
**A.** Its value is “failed to alter”.

**Q.** What about the “levels of miR27a and b in skeletal muscle” value [8] of the same compound?
**A.** The value was “decrease”.

**Q.** With CC#C[C@]1(O)CC[C@H]2[C@@H]3CCC4=CC(=O)CCC4=C3[C@@H](c3ccc(N(C)C)cc3)C[C@@]21C [mifepristone] as the compound, how does the “angiotensin II induced muscle wasting” value [9] read?
**A.** Its value is “reversed”.

**Q.** What about the “tyrosine release from muscle explants” value [10] of the same compound?
**A.** The value was “significantly reduced”.

**Q.** And the “half-life (in words)” value (in vivo)?
**A.** Its value is “very short”.

**Q.** What about the half-life (rodents, ref Heikinheimo et al., 1994) of the same compound?
**A.** Its half-life is 1 to 2 h.

**Q.** What about the “activity at other steroid receptors” value [11] of the same compound?
**A.** Its value is “has activity”.

**Q.** And the “induction of MAFbx and MuRF1 in septic rats” value ([12]; CLP, 24 h)?
**A.** Its value is “failed to alter”.

**Q.** And the “induction of MAFbx and MuRF1 by dexamethasone” value ([12]; similar time point)?
**A.** The value was “effectively blocking”.

**Q.** And the mortality ([13]; concurrent cytokine and mifepristone administration)?
**A.** The mortality was ~50%.

**Q.** And the “induction of muscle protein degradation brought about by tumor necrosis factor (TNF)” value ([13]; concurrent mifepristone)?
**A.** Its value is “attenuates”.

**Q.** What about the “proteolysis accompanied by interleukin-1 α administration” value ([13]; concurrent mifepristone) of the same compound?
**A.** The value was “not blocked”.

**Q.** What about the “induction of MAFbx, MuRF1, and Foxo1 in muscle” value [14] of the same compound?
**A.** Its value is “blocked”.
